Article PMC8165744, “Identification of an Alternative Glycyrrhizin Metabolite Causing Liquorice-Induced Pseudohyperaldosteronism and the Development of ELISA System to Detect the Predictive Biomarker” (Frontiers in Pharmacology, 2021)
Where two headings read alike, the source gives them in different places.

Tests used:
[1] = binding of compound 4 to albumin in pooled EHBR plasma (ultrafiltration); type: in vitro ADME, Eisai hyperbilirubinuria rats (EHBRs); details: female, Eisai hyperbilirubinuria rat (EHBR), rat, 200 mg/kg; pooled plasma of EHBRs 12 h after oral GA
Experimental: (§1) Binding of Compound 4 to Albumin
(§2) We measured the binding ratios of 4 to albumin in pooled plasma of female EHBRs using the same protocol used in our previous study ([Ishiuchi et al., 2019]).
(§3) The pooled plasma samples collected from EHBRs 12 h after oral treatment with GA were loaded into ultracentrifuge filters with a 1 × 10^4 molecular weight cut-off and concentrated by centrifugation. The concentrations of 4 in the pooled plasma and the filtrate were 77 µM and undetectable, respectively. Based on the detection limits (3.2 nM) in the LC-MS/MS analysis, the albumin-binding ratios of 4 in the plasma was calculated to be more than 99.9%.

albumin = molecular target: T1, albumin (Rattus norvegicus, UniProt P02770); test: as above; type: in vitro ADME, Eisai hyperbilirubinuria rats (EHBRs)
T1 construct: from tissue; host or cells: pooled plasma of EHBRs orally treated with GA
Experimental: as §1, §2, §3

[2] = pharmacokinetics of GA metabolites in EHBRs orally treated with GA; type: in vivo, Eisai hyperbilirubinuria rats (EHBRs); details: Eisai hyperbilirubinuria rat (EHBR), rat, plasma, 200 mg/kg, GA 0.20 g/kg oral, read-out: plasma concentration 12 h after oral administration of GA
Experimental: Pharmacokinetic Experiments of GA Metabolites in EHBRs Orally Treated With GA
Male and female EHBRs (9 week-old) were anaesthetized by an intraperitoneal injection of urethane (1 g/kg) and their jugular veins were exposed. GA suspended in 0.5% carboxymethylcellulose was then administered orally (200 mg/kg) to the unconscious rats, and blood samples were collected from the jugular vein while urine samples were collected using a metabolic cage at appropriate times over a 12 h period.
LC-MS/MS Analysis for GA Metabolites
(§4) Briefly, after diluting serum and urine samples with water to obtain suitable concentrations, they were digested with subtilisin (0.91 U/ml), followed by the addition of astragaloside IV (used as an internal standard; Fujifilm Wako Pure Chemicals, Osaka, Japan), and deproteinized using 80% ethanol. […] The transitions (precursor to daughter) monitored and retention times were as follows: ESI(+), 743.4 to 567.5 m/z (35 and 25 V for cone voltage and collision energy, respectively) for compound 1 (8.1 min); ESI(–), 565.5 to 96.5 m/z (80 and 60 V) for 2 (9.6 min); ESI(–), 549.5 to 96.5 m/z (80 and 60 V) for 3 (15.4 min); ESI(+), 727.3 to 551.2 m/z (30 and 25 V) for 4 (11.3 min); ESI(+), 647.6 to 453.6 m/z (40 and 20 V) for 3MGA (15.0 min); ESI(+), 471.3 to 91.0 m/z (40 and 20 V) for GA (13.4 min); ESI(+), 823.5 to 453.6 m/z (30 and 20 V) for GL (18.4 min); and ESI(+), 785.4 to 143.0 m/z (30 and 20 V) for astragaloside IV (3.0 min). Linear regressions over the concentration range of 2 nM to 2 µM for each compound were examined using the peak-area ratio of the compounds to their internal standards and the least-squares method (r ^ 2 > 0.98). The detection limits for 1, GL, and GA were 6.4 nM, and those for 2, 3, and 4, and 3MGA were 3.2 nM.
FIGURE 5 Pharmacokinetic profiles of glycyrrhizin (GL) metabolites in female (A–C) and male (D–F) Eisai hyperbilirubinuria rats (EHBRs). […] Data of GA, 3MGA, 1, 2, and 3 in (A) and GA, 3MGA, 2, and 3 for (D) are relatively small; their magnified graphs are shown in (B,E), respectively. Concentrations of GA metabolites were measured using liquid chromatography-tandem mass spectrometry (LC-MS/MS), and data are means ± standard error (S.E: n = 4).

[3] = elimination of GA metabolites in SD rats intravenously injected with GA; type: in vivo, Sprague-Dawley (SD) rats; details: female SD rats
Source text: as §4
FIGURE 6 Elimination of glycyrrhizin (GL) metabolites into bile in Sprague-Dawley (SD) rats. Female SD rats (10 week-old) were anesthetized using intraperitoneal injection of urethane (1 g/kg), and biliary tracts were cannulated. […] Concentrations of GA metabolites were measured using liquid chromatography-tandem mass spectrometry (LC-MS/MS) and accumulated elimination of GA-metabolites are means ± standard error (S.E: n = 3).

[4] = pharmacokinetics of GA metabolites in EHBRs orally treated with GA; type: in vivo, Eisai hyperbilirubinuria rats (EHBRs); details: Eisai hyperbilirubinuria rat (EHBR), plasma, oral GA 200 mg/kg, 24 h after treatment, read-out: concentration in plasma sample

T1 sequence (P02770 25-608): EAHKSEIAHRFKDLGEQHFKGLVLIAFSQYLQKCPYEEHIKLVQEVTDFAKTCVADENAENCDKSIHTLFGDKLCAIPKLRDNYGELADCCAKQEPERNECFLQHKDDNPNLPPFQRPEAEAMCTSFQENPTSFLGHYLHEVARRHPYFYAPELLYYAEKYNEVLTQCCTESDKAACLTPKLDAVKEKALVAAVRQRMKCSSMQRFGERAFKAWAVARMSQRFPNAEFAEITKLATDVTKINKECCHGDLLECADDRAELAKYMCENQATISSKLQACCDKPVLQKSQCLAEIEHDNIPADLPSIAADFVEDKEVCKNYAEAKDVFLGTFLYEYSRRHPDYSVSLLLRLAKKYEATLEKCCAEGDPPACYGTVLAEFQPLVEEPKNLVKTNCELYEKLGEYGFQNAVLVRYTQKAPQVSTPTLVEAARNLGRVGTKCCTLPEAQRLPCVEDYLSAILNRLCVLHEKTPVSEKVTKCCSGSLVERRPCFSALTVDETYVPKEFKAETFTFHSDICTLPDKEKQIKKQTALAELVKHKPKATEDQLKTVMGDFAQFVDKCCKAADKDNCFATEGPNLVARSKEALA

- concentration at 12 h [1]: 77 µM
- albumin-binding ratio in plasma (albumin; pooled EHBR plasma, 1 × 10^4 MW cut-off filter, calculated from detection limit 3.2 nM): more than 99.9%
- concentration in filtrate (albumin; ultracentrifuge filtrate of pooled EHBR plasma): undetectable
- concentration at 12 h ([2]; female EHBRs): 208 µM
- concentration at 12 h ([2]; male EHBRs): 237 µM
- accumulation in the bile ([3]; GA 0.2 mg/kg iv, bile collected for 4 h): the highest
- accumulative elimination in faeces ([3]; GA iv, faeces collected 24 h after injection): below detectable levels
- concentration at 24 h ([4]; female EHBRs): 115 µM
- concentration at 24 h ([4]; male EHBRs): 189 µM
SMILES: CC1(C)[C@@H](OS(=O)(=O)O)CC[C@]2(C)[C@H]3C(=O)C=C4[C@@H]5C[C@@](C)(C(=O)O[C@@H]6O[C@H](C(=O)O)[C@@H](O)[C@H](O)[C@H]6O)CC[C@]5(C)CC[C@@]4(C)[C@]3(C)CC[C@@H]12 [Compound 4, 18β-glycyrrhetyl-3-O-sulfate-30-O-glucuronide]
